Measurements from patent US20060276464A1, “Diarylsulfone sulfonamides and use thereof” (Wyeth, priority 2005, published 2006).
Where two headings read alike, the source gives them in different places.

Target: T1, SFRP-1 (Homo sapiens, UniProt Q8N474)
T1 sequence (Q8N474 32-314): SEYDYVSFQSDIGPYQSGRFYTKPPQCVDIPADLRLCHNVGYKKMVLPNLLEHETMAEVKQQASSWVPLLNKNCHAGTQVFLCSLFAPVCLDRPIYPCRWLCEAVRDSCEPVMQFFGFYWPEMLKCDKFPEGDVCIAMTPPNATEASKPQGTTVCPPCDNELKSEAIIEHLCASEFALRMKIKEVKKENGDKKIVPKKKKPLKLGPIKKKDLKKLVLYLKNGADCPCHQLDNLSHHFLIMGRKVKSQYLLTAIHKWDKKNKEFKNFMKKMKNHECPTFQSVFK
Assay: Cell-based assay for in vitro measurement of SFRP-1/SARP2 antagonist activity (U2OS cells co-transfected with 16x TCF-tk-Luciferase reporter, Wnt and hSFRP-1);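 also: U2OS cells co-transfected with a TCF-tk luciferase reporter, a Wnt vector, hSFRP-1 or empty vector and CMV-βgal, luciferase luminescence read in cell lysates alongside βgal activity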
Details: for fold induction at 15 µM / fold induction at 30 µM / fold induction at 10 µM / fold induction at 20 µM: U2OS; for fold induction at 10 µM: read-out: Fold Induction with SFRP-1, U2OS cells, single dose 10 μM, luciferase reporter, fold induction over SFRP-1 control

[1] = read-out: Fold Induction with SFRP-1, Conc 15 μM, with SFRP-1, fold induction over SFRP-1 control, single dose
[2] = read-out: Fold Induction without SFRP-1, Conc 15 μM, without SFRP-1, single dose
[3] = read-out: Fold Induction with SFRP-1, Conc 15 μM, single dose, luciferase reporter, fold induction over SFRP-1 control, cells with SFRP-1
[4] = read-out: Fold Induction without SFRP-1, Conc 15 μM, single dose, luciferase reporter, cells without SFRP-1 (specificity control)
[5] = read-out: Fold Induction with SFRP-1, Conc 30 μM, with SFRP-1, fold induction over SFRP-1 control, single dose
[6] = read-out: Fold Induction without SFRP-1, Conc 30 μM, without SFRP-1, single dose

CC(=O)N1CCC(NS(=O)(=O)c2cc(S(=O)(=O)c3ccccc3)ccc2C)CC1 [Example 479, N-(1-acetylpiperidin-4-yl)-2-methyl-5-(phenylsulfonyl)benzenesulfonamide]
fold induction at 15 µM [1]: 2.1
fold induction at 15 µM [2]: 1.1

Cc1ccc(S(=O)(=O)c2ccccc2)cc1S(=O)(=O)NC1CCN(C(=O)NC2CCCCC2)CC1 [Example 491, N-cyclohexyl-4-({[2-methyl-5-(phenylsulfonyl)phenyl]sulfonyl}amino)piperidine-1-carboxamide]
fold induction at 15 µM [3]: 1.1
fold induction at 15 µM [4]: 1

CCOc1cc(CCNS(=O)(=O)c2cccc(S(=O)(=O)c3ccccc3)c2)ccc1OC [Example 83, N-[2-(3-ethoxy-4-methoxyphenyl)ethyl]-3-(phenylsulfonyl)benzenesulfonamide]
fold induction at 15 µM [1]: 1.3
fold induction at 15 µM [2]: 1.2

Cc1cc(S(=O)(=O)c2ccccc2)cc(S(=O)(=O)NCCCn2ccnc2)c1C [Example 348, N-[3-(1H-imidazol-1-yl)propyl]-2,3-dimethyl-5-(phenylsulfonyl)benzenesulfonamide]
fold induction at 15 µM [1]: 2.5
fold induction at 15 µM [2]: 1.2

NC(=O)CCNS(=O)(=O)c1cccc(S(=O)(=O)c2ccccc2)c1 [Example 181, N^3-{[3-(phenylsulfonyl)phenyl]sulfonyl}-beta-alaninamide]
fold induction at 30 µM [5]: 0.6
fold induction at 30 µM [6]: 1

Cc1ccc(S(=O)(=O)c2ccccc2)cc1S(=O)(=O)NCCC(=O)NC1CCCc2ccccc21 (stereo not drawn) [Example 667, N^3-{[2-methyl-5-(phenylsulfonyl)phenyl]sulfonyl}-N-(1,2,3,4-tetrahydronaphthalen-1-yl)-β-alaninamide]
fold induction at 10 µM: 0.9

Cc1ccc(S(=O)(=O)c2ccccc2)cc1S(=O)(=O)NC(C)(C)C [Example 395, N-(tert-butyl)-2-methyl-5-(phenylsulfonyl)benzenesulfonamide]
fold induction at 15 µM [1]: 1.2
fold induction at 15 µM [2]: 1

Cc1ccc(S(=O)(=O)c2ccc(Cl)cc2)cc1S(=O)(=O)NCCCn1ccnc1 [Example 292, 5-[(4-chlorophenyl)sulfonyl]-N-[3-(1H-imidazol-1-yl)propyl]-2-methylbenzenesulfonamide]
fold induction at 15 µM [1]: 2.3
fold induction at 15 µM [2]: 0.8

CCc1ccc(S(=O)(=O)c2ccccc2)cc1S(=O)(=O)NCCCN1CCCC1 [Example 232, 2-ethyl-5-(phenylsulfonyl)-N-(3-pyrrolidin-1-ylpropyl)benzenesulfonamide]
fold induction at 15 µM [1]: 4.2
fold induction at 15 µM [2]: 1.6

CC(C)(C)OC(=O)N1CCCC1CCNS(=O)(=O)c1cc(S(=O)(=O)c2ccccc2)ccc1C(F)(F)F (centres unmarked) [Example 908, tert-butyl 2-[2-({[5-(phenylsulfonyl)-2-(trifluoromethyl)phenyl]sulfonyl}amino)ethyl]pyrrolidine-1-carboxylate]
fold induction at 10 µM: 1.1

Cc1ccc(S(=O)(=O)c2ccc3ccccc3c2)cc1S(=O)(=O)NCCCn1ccnc1 [Example 339, N-[3-(1H-imidazol-1-yl)propyl]-2-methyl-5-(2-naphthylsulfonyl)benzenesulfonamide]
fold induction at 15 µM [1]: 2.6
fold induction at 15 µM [2]: 1.1

COc1cccc(CCNS(=O)(=O)c2cc(S(=O)(=O)c3ccc(C)cc3)ccc2C)c1 [Example 119, N-[2-(3-methoxyphenyl)ethyl]-2-methyl-5-[(4-methylphenyl)sulfonyl]benzenesulfonamide]
fold induction at 30 µM [5]: 0.2
fold induction at 30 µM [6]: 0.3

Cc1ccc(S(=O)(=O)c2ccc(F)cc2)cc1S(=O)(=O)NC1CCOCC1 [Example 308, 5-[(4-fluorophenyl)sulfonyl]-2-methyl-N-tetrahydro-2H-pyran-4-ylbenzenesulfonamide]
fold induction at 15 µM [1]: 2.3
fold induction at 15 µM [2]: 0.9

Cc1ccc(S(=O)(=O)c2ccc(N[C@@H]3C[C@H]4CC[C@@H]3C4)cc2)cc1S(=O)(=O)NCCCn1ccnc1 [Example 369, 5-({4-[(1R,2R,4S)-bicyclo[2.2.1]hept-2-ylamino]phenyl}sulfonyl)-N-[3-(1H-imidazol-1-yl)propyl]-2-methylbenzenesulfonamide]
fold induction at 15 µM [1]: 1.9
fold induction at 15 µM [2]: 0.7

Cc1cc(S(=O)(=O)c2ccccc2)cc(S(=O)(=O)NCCc2ccccn2)c1C [Example 349, 2,3-dimethyl-5-(phenylsulfonyl)-N-(2-pyridin-2-ylethyl)benzenesulfonamide]
fold induction at 15 µM [1]: 2
fold induction at 15 µM [2]: 1.2

CC(C)c1ccc(S(=O)(=O)c2cc(F)cc(F)c2)cc1S(=O)(=O)NCCc1ccccn1 [Example 458, 5-[(3,5-difluorophenyl)sulfonyl]-2-isopropyl-N-(2-pyridin-2-ylethyl)benzenesulfonamide]
fold induction at 15 µM [1]: 2.9
fold induction at 15 µM [2]: 0.9

O=S(=O)(NC1CCOCC1)c1cc(S(=O)(=O)c2ccccc2)ccc1Cl [Example 361, 2-chloro-5-(phenylsulfonyl)-N-(tetrahydro-2H-pyran-4-yl)benzenesulfonamide]
fold induction at 15 µM [1]: 2.3
fold induction at 15 µM [2]: 0.9

Cc1ccc(S(=O)(=O)c2ccc(F)cc2)cc1S(=O)(=O)NCCCN1CCN(C)CC1 [Example 179, 5-[(4-fluorophenyl)sulfonyl]-2-methyl-N-[3-(4-methylpiperazin-1-yl)propyl]benzenesulfonamide]
fold induction at 15 µM [1]: 2
fold induction at 15 µM [2]: 1.1

CCc1ccc(S(=O)(=O)c2ccccc2)cc1S(=O)(=O)N[C@H]1C[C@@H]1c1ccccc1 [Example 267, 2-ethyl-N-[(1S,2R)-2-phenylcyclopropyl]-5-(phenylsulfonyl)benzenesulfonamide]
fold induction at 15 µM [1]: 2
fold induction at 15 µM [2]: 1.2

COc1ccc(CCN(C)S(=O)(=O)c2cc(S(=O)(=O)c3ccccc3)ccc2C)cc1OC [Example 272, N-[2-(3,4-dimethoxyphenyl)ethyl]-N,2-dimethyl-5-(phenylsulfonyl)benzenesulfonamide]
fold induction at 15 µM [1]: 0.9
fold induction at 15 µM [2]: 1

Cc1ccc(C)n1CC1CCN(S(=O)(=O)c2cc(S(=O)(=O)c3ccccc3)ccc2Cl)CC1 [Example 653, 1-{[2-chloro-5-(phenylsulfonyl)phenyl]sulfonyl}-4-[(2,5-dimethyl-1H-pyrrol-1-yl)methyl]piperidine]
fold induction at 15 µM [3]: 1
fold induction at 15 µM [4]: 1

COCCCNS(=O)(=O)c1cc(S(=O)(=O)c2ccccc2)ccc1OC [Example 238, 2-methoxy-N-(3-methoxypropyl)-5-(phenylsulfonyl)benzenesulfonamide]
fold induction at 15 µM [1]: 1.3
fold induction at 15 µM [2]: 0.9

Cc1ccc(S(=O)(=O)c2ccccc2)cc1S(=O)(=O)NC1CCCCC1 [Example 400, N-cyclohexyl-2-methyl-5-(phenylsulfonyl)benzenesulfonamide]
fold induction at 15 µM [1]: 1.8
fold induction at 15 µM [2]: 1.2

COc1ccc(S(=O)(=O)c2ccccc2)cc1S(=O)(=O)NCCN1CCOCC1 [Example 237, 2-methoxy-N-(2-morpholin-4-ylethyl)-5-(phenylsulfonyl)benzenesulfonamide]
Fold Induction with SFRP-1 (Conc 15 μM, with SFRP-1, fold induction over SFRP-1 control, single dose): 1.4 fold
fold induction at 15 µM [1]: 1.1
fold induction at 15 µM [2]: 0.9

Cc1cc(C)c(S(=O)(=O)c2ccc(F)cc2)cc1S(=O)(=O)NCCCn1ccnc1 [Example 330, 5-[(4-fluorophenyl)sulfonyl]-N-[3-(1H-imidazol-1-yl)propyl]-2,4-dimethylbenzenesulfonamide]
fold induction at 15 µM [1]: 3.2
fold induction at 15 µM [2]: 1.1

Cc1ccc(S(=O)(=O)c2ccc(F)cc2)cc1S(=O)(=O)NCCC1CCCN1C (centres unmarked) [Example 164, 5-[(4-fluorophenyl)sulfonyl]-2-methyl-N-[2-(1-methylpyrrolidin-2-yl)ethyl]benzenesulfonamide]
fold induction at 15 µM [1]: 1.9
fold induction at 15 µM [2]: 1.1

Cc1ccc(S(=O)(=O)c2ccoc2C)cc1S(=O)(=O)NCCCn1ccnc1 [Example 363, N-[3-(1H-imidazol-1-yl)propyl]-2-methyl-5-[(2-methyl-3-furyl)sulfonyl]benzenesulfonamide]
fold induction at 15 µM [1]: 2.1
fold induction at 15 µM [2]: 1.1

COc1ccc(S(=O)(=O)c2ccccc2)cc1S(=O)(=O)N[C@H]1C[C@@H]1c1ccccc1 [Example 270, 2-methoxy-N-[(1S,2R)-2-phenylcyclopropyl]-5-(phenylsulfonyl)benzenesulfonamide]
fold induction at 15 µM [1]: 1.5
fold induction at 15 µM [2]: 1.2

Cc1ccc(S(=O)(=O)c2ccc(Cl)cc2)cc1S(=O)(=O)N[C@H]1C[C@@H]1c1ccccc1 [Example 256, 5-[(4-chlorophenyl)sulfonyl]-2-methyl-N-[(1S,2R)-2-phenylcyclopropyl]benzenesulfonamide]
fold induction at 20 µM (read-out: Fold Induction with SFRP-1, Conc 20 μM, with SFRP-1, fold induction over SFRP-1 control, single dose): 1.2
fold induction at 20 µM (read-out: Fold Induction without SFRP-1, Conc 20 μM, without SFRP-1, single dose): 1

CN1CCN(CCCNS(=O)(=O)c2cc(S(=O)(=O)c3ccccc3)ccc2Cl)CC1 [Example 642, 2-chloro-N-[3-(4-methylpiperazin-1-yl)propyl]-5-(phenylsulfonyl)benzenesulfonamide]
fold induction at 15 µM [3]: 2.2
fold induction at 15 µM [4]: 1.1
